# According to patent publication US20040059104A1, “Nucleotide mimics and their prodrugs” (priority 2002, published 2004):
# Like-named read-outs stand apart in the source and are kept apart here.
# What was measured:
# [1] = test system: HIV-1RF; experiment: Anti-HIV-1 cytoprotection assay in CEM-SS cells; format: cell-based; details: CEM-SS cells infected with HIV-1RF, MOI approximately 0.01, 6 days, MTS; read-out: CEM-SS IC50 (Anti-HIV Screening)
# Description: (§1) ollowing paper: Structure-Activity and Cross-Resistance unodeficiency Virus Type 1-Specific ckheit, Jr. et al., Antimicrobial Agents and s were evaluated in CEM-SS cell cultures V-1RF at an MOI of approximately 0.01. At he soluble tetrazolium-based dye MTS viability and quantify compound toxicity of metabolically active cells to yield a soluble analysis of cell viability and compound
# Efficacy Evaluation in CEM-SS Cells Anti-HIV-1 Cytoprotection Assay
# Cell Preparation—CEM-SS cells were passaged in T-75 flasks prior to use in the antiviral assay. On the day preceding the assay, the cells were split 1:2 to assure they were in an exponential growth phase at the time of infection. Total cell and viability quantification was performed using a hemacytometer and trypan blue exclusion. Cell viability was greater than 95% for the cells to be utilized in the assay. The cells were resuspended at 5×10^4 cells/ml in tissue culture medium and added to the drug-containing microtiter plates in a volume of 50 μl.
# Virus Preparation—The virus used for these tests was the lymphocytropic virus strain HIV-1RF. This virus was obtained from the NIH AIDS Research and Reference Reagent Program and was grown in CEM-SS cells for the production of stock virus pools. For each assay, a pre-titered aliquot of virus was removed from the freezer (−80° C.) and allowed to thaw slowly to room temperature in a biological safety cabinet. The virus was resuspended and diluted into tissue culture medium such that the amount of virus added to each well in a volume of 50 μl was the amount determined to give between 85 to 95% cell killing at 6 days post-infection.
# (§2) At assay termination, the assay plates were stained with the soluble tetrazolium-based dye MTS (CellTiter Reagent Promega) to determine cell viability and quantify compound toxicity. MTS is metabolized by the mitochondrial enzymes of metabolically active cells to yield a soluble formazan product, allowing the rapid quantitative analysis of cell viability and compound cytotoxicity. […] At termination of the assay, 20 μL of MTS reagent was added per well. The microtiter plates were then incubated 4-6 hrs at 37° C. for the HIV cytoprotection assay; the incubation intervals were chosen based on empirically determined times for optimal dye reduction. Adhesive plate sealers were used in place of the lids, the sealed plate was inverted several times to mix the soluble formazan product and the plate was read spectrophotometrically at 490 nm with a Molecular Devices Vmax plate reader.
# [2] = test system: Staphylococcus aureus; experiment: Antimicrobial assay, minimal inhibitory concentration; format: cell-based
# Outline: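 E. coli and S. aureus grown overnight at 37° C were first screened by disc diffusion on Nutrient Broth agar lawns. MIC was then read after overnight incubation at 37° C as the lowest compound concentration giving no increase in absorbance at 600 nm.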
# [3] = test system: Escherichia coli; experiment: as above; format: cell-based
# [4] = test system: CEM-SS cells; experiment: Compound toxicity in CEM-SS cells (MTS staining); format: cell-based; details: read-out: CEM-SS TC50
# Description: as §1, §2
# [5] = in vitro; details: human
# Description: The stability of compounds in cell extracts was examined as follows:
# Cell lysis buffer was added to cell pellets and the cells frozen and thawed 3× using dry ice. The lysis buffer (LB) was composed of the following: 50 mM Tris-HCl, pH 7.4 (100 μl/ml 10× stock), 20% glycerol (200 μl/ml), and 0.5% Triton X-100 (5 μl/ml). 100 μl of LB was added to each microfuge tube containing 10^7 frozen CEM cells. After the cells were lysed the extracts were centrifuged at high speed in a microcentrifuge for 5 minutes and the clarified cell extract transferred to a new tube. The cell stability reaction mixtures contained concentrations of buffer, magnesium, nucleotide, and cell extract as shown below:
# The reaction mixtures were incubated at 37° C. At each time point, including at time zero, 12.5 μl aliquots were added to 40 μl ice-cold methanol. […] The samples were incubated in methanol for at least 60 minutes and typically overnight at −20° C. prior to further processing. The cell extracts were centrifuged at high speed in refrigerated microcentrifuge for 20 minutes and the supernatant transferred to a new tube. The extract was then dried under vacuum in a LabConco Centrivap Concentrator. The samples were then resuspended in 40 or 50 μl dH2O, filtered to remove any particulate, and analyzed by reverse phase HPLC.
# The reverse phase HPLC columns used for the analysis were either a Phenomenex C18 Aqua column (2×100 mm) or the Phenomenex C18 Aqua column (3×150 mm) used with the appropriate guard column. The HPLC flow rate was either 0.2 ml/min (for the 2×100 mm column) or 0.5 ml/min (for the 3×150 mm column) with the following buffer system: 5 mM tetrabutylammonium acetate, 50 mM ammonium phosphate, and an acetonitrile gradient running from 5% up to as high as 60%. The amount of remaining parent compound at each time point was used to determine the half-life of the compound. […] Unmodified nucleoside triphosphates were used as positive controls.
# [6] = molecular target: purified bovine brain tubulin; experiment: Assay for inhibition of microtubule (tubulin) polymerization; format: biochemical; details: 50 μM GTP, 37° C.; read-out: Ki, Inhibition of Tubulin Polymerization by Nucleotide Mimics
# Description: The assays employed to measure the polymerization and stability of tubulin microtubule protein are described below. The effectiveness of the compounds of the present invention as modulators of tubulin microtubule protein dynamics was measured in the following assays.
# This assay was used to measure the ability of the nucleotide mimics of the present invention to inhibit the polymerization of tubulin subunits and subsequent assembly of microtubule protein. This assay is a modification of a published procedure (Xu et al., “Interaction of Tubulin with Guanosine 5′-O-(1-Thiotriphosphate) Diastereoisomers: Specificity of the α-Phosphate Binding Region”, Biochemistry 1994, 33, 11884-90).
# The compounds were tested at various concentrations up to 500 μM final concentration. Polymerization assays were performed in 96-well microplates (Costar), in assay buffer containing GTP and tubulin. The nucleotide mimics of the present invention were diluted in buffer and pipetted into the plate wells. Samples were kept on ice until the reactions were initiated by moving the plates into a 37° C. incubator. The polymerization reaction was allowed to proceed at 37° C. for 30 minutes, monitored at 340 nm using a microplate spectrophotometer with a temperature-controlled incubator (Molecular Devices, Sunnyvale, Calif.). Initial velocity data (mA min^−1) was collected and fit to the equations below.
# The percentage of inhibition was calculated according to the following equation:
# % Inhibition=[1−(mA min^−1 in test reaction−mA min^−1 in blank)/(mA min^−1 in control reaction−mA min^−1 in blank)]×100.
# Each inhibitor was titrated over an appropriate range of concentrations, and inhibition constants were determined using the following equations:
# v=Vm[S]/(Km(1+[I]/Ki)+[S])
# [7] = molecular target: HIV reverse transcriptase (RT) (Human immunodeficiency virus type 1 group M subtype B, UniProt P04585); details: assays using homopolymer templates; background statement; cited from earlier work
# [8] = molecular target: Ribonucleotide Reductase (RNR R1/R2) (Escherichia coli, UniProt P00452); experiment: Ribonucleotide Reductase inhibition assay (coupled NADPH oxidation); format: biochemical
# Description: The assays employed to measure inhibition of Ribonucleotide Reductase (RNR) activity are described below. The effectiveness of the compounds of the present invention as inhibitors of RNR enzyme was determined using the following assays.
# This assay was used to measure the ability of the nucleotide mimics of the present invention to inhibit the enzymatic reaction catalyzed by RNR enzyme. In the reduction of cytidine 5′-diphosphate (CDP) to 2′-deoxycytidine 5′-diphosphate (dCDP), stoichiometric amounts of oxidized thioredoxin are formed. This protein is reduced by NADPH in a reaction catalyzed by thioredoxin reductase. By coupling the two reactions, RNR activity was measured by spectrophotometric determination of NADPH oxidation at 340 nm using a UV/VIS spectrophotometer. […]
# The standard RNR assay is performed in a 96-well plate (Corning). […] The oxidation of NADPH was monitored at 340 nm on a microplate spectrophotometer (Molecular Devices Corp, Sunnyvale, Calif.). […]
# The percentage of inhibition was calculated according to the following equation: […]
# Each inhibitor was titrated over an appropriate range of concentrations, and IC50 values were determined using the equation: […]
# [9] = in vitro; details: bovine, serum
# [10] = test system: CEM cells; experiment: Cell uptake procedure (intracellular nucleotide levels by HPLC); format: cell-based, Human; details: 24 hour incubation, limit of detection about 5 pmol/10^6 cells
# Description: CEM cells were resuspended in RPMI at 1×10^7 cells/mL. The appropriate amount of each compound was added to well and then 0.5 ml of the cells was aliquoted into the appropriate number of wells of a 24-well plate and incubated the cells at 37° C. Cells were harvested after 24 hours of incubation. To harvest cells they were transferred to a microfuge tube and spun for one minute at high speed. The samples were washed in PBS containing 1 mg/ml BSA and re-centrifuged. The PBS was then aspirated and 200 μL of ice-cold 60% methanol was added to extract the nucleotides. The extracts were incubated overnight at −20° C. The next day the samples were spun at high speed in a microfuge for 20 minutes and the supernatant transferred to clean tubes and dried in the speed vac. After drying the samples were resuspended in 50 μl, filtered, and the samples then directly injected onto the HPLC. The nucleotides were analyzed using reverse phase HPLC with ion-pairing agents for separation of the nucleotides. The procedure was adapted from the following paper: Furman, et al., Proc. Natl. Acad. Sci. USA 1986, 83, 8333-8337.
# The limit of detection was estimated to be 5 pmol/10^6 cells.
# [11] = overnight at 37° C., tested 0-200 μg/ml, NA = Not active
# [12] = value in brackets beside the μg/ml value
# Chain of Ribonucleotide Reductase (RNR R1/R2) (P69924 2-376): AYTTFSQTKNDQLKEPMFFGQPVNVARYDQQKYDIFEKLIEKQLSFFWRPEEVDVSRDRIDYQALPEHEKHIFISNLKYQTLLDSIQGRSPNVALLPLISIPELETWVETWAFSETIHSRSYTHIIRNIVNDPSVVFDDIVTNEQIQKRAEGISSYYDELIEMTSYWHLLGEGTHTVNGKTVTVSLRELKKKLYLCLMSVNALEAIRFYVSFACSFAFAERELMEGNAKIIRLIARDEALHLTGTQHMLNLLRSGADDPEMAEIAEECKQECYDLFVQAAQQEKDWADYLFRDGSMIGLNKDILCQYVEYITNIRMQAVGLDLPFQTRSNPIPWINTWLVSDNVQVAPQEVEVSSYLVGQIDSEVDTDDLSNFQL
# Chain of Ribonucleotide Reductase (RNR R1/R2) (P00452 whole entry): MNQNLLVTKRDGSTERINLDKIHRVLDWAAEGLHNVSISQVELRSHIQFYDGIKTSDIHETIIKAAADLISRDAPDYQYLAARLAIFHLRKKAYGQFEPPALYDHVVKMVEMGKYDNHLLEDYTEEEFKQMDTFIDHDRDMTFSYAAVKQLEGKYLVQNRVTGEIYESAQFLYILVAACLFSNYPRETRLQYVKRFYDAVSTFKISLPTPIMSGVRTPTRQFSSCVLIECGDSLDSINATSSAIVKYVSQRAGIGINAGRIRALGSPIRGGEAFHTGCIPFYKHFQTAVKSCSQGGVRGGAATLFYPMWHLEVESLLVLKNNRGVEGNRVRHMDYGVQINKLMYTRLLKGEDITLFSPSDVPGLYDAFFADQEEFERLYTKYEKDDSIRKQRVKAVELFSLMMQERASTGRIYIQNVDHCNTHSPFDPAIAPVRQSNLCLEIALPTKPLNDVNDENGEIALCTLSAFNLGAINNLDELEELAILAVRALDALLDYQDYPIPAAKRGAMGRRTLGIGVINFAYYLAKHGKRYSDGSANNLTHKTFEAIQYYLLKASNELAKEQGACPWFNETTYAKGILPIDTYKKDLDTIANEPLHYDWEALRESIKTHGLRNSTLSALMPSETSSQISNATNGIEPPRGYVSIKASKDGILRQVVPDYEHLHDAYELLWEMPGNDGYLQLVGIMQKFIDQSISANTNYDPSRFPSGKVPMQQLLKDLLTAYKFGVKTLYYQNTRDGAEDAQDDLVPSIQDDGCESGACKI
molecule,measurement,setting,value
"3′-Azido-3′-deoxythymidine 5′-α-P-borano-β,γ-difluoromethylene-γ-O-palmityltriphosphate [Compound 41]",IC50,[1],1.41 µM
same,S. aureus MIC,[2]; [11],5 to 10 mg/L
same,S. aureus MIC,[2]; [12],(6.5-13) μM
same,E. coli MIC,[3]; [11],25 to 50 mg/L
same,E. coli MIC,[3]; [12],(33-66) uM
same,CC50,[4],12 µM
same,"Half-Life, Cell Extract Half-Lives of AZT 5'-α-P-borano-β,γ-(difluoromethylene) triphosphate Prodrugs",[5],>48 h
Nc1ccn([C@@H]2O[C@H](COP(=O)(O)OP(=O)(O)O)[C@@H](O)C2=CF)c(=O)n1 [2′-Deoxy-2′-fluoromethylenecytidine 5′-diphosphate],Ki,[6],19.4 µM
BP(=O)(OC[C@@H]1O[C@H](n2cc(C)c(=O)[nH]c2=O)C[C@H]1N=[N+]=[N-])OP(=O)(O)OP(=O)(O)O (stereo partly drawn) [AZT 5′-α-P-boranotriphosphate],"Ki values, inhibition of HIV reverse transcriptase (RT)",[7],low nM range
"Nc1ccn([C@@H]2O[C@H](COP(=O)(O)NP(=O)(O)O)[C@@H](O)/C2=C\F)c(=O)n1 [Compound 3, 2′-Deoxy-(E)-2′-fluoromethylenecytidine 5′-imidodiphosphate]",IC50,"[8]; 3-minute inactivation, then assay with 1 mM CDP, read-out: IC50, Inhibition of Ribonucleotide Reductase by Nucleotide Mimics",8.9 µM
"Nc1ccn([C@@H]2O[C@H](COP(=O)(O)NP(=O)(O)O)[C@@H](O)C2(F)F)c(=O)n1 [Compound 6, 2′-Deoxy-2′,2′-difluorocytidine 5′-imidodiphosphate]",half-life at 500 μM,"[9]; Half-Life, Serum Half-Lives of Gemcitibine Diphosphate Mimics and Their Prodrugs",15 h
same,IC50,[8],12.6 µM
"BP(=O)(OC[C@H]1O[C@@H](n2cc(C)c(=O)[nH]c2=O)C[C@H]1N=[N+]=[N-])OP(=O)(O)C(F)(F)P(=O)(O)OCOC(=O)C(C)(C)C (stereo partly drawn) [Compound 69, 3′-Azido-3′-deoxythymidine 5′-α-P-borano-γ-O-(pivaloyloxymethyl)-β,γ-(difluoromethylene)triphosphate]","Half-Life, Serum Half-Lives of AZT Triphosphate Mimic Prodrugs",[9],>48 h
same,IC50,[1],1.13 µM
same,E. coli MIC,[3]; [11],0.75 mg/L
same,E. coli MIC,[3]; [12],(1) uM
same,CC50,[4],45.9 µM
same,"Half-Life, Cell Extract Half-Lives of AZT 5'-α-P-borano-β,γ-(difluoromethylene) triphosphate Prodrugs",[5],8 h
same,Intracellular levels of 27,[10]; incubation concentration 25 μM,33.1 pmol/10^6 cells
same,Intracellular levels of 27,[10]; incubation concentration 50 μM,51.1 pmol/10^6 cells
same,Intracellular levels of 27,[10]; incubation concentration 100 μM,70.8 pmol/10^6 cells
"Nc1ccn([C@@H]2O[C@H](COP(=O)(O)CCP(=O)(O)O)[C@@H](O)C2(F)F)c(=O)n1 [Compound 81, 2′-Deoxy-2′,2′-difluorocytidine 5′-ethylenediphosphonate]",Ki,[6],15.7 µM
Nc1nc2c(ncn2[C@@H]2O[C@H](COP(=O)(O)OP(=O)(O)O)[C@@H](O)[C@H]2O)c(=O)[nH]1 [Guanosine 5′-diphosphate],Ki,[6],15.3 µM
Nc1nc2c(ncn2[C@@H]2O[C@H](COP(=O)(O)NP(=O)(O)O)[C@@H](O)[C@H]2O)c(=O)[nH]1 [Guanosine 5′-imidodiphosphate],Ki,[6],5.7 µM
D4T 5′-α-P-boranotriphosphate,"Ki values, inhibition of HIV reverse transcriptase (RT)",[7],low nM range
